Experimental data: ChEMBL document CHEMBL5465560, “Selectivity Literature for EUbOPEN Chemogenomic Library” (2024)
Each block holds one molecule with its values, some of them ahead of it.

Columns and labels:
[1] = biological target: 3',5'-cyclic-AMP phosphodiesterase 4D (Homo sapiens) (UniProt Q08499); assay: Selectivity interaction (Panel of non-epigenetic targets (kinases, GPCRs, ion channels, and transporters, Eurofins) ) EUB0000271b PDE4D; settings: at 1 µM
[2] = biological target: T1, Histone-lysine N-methyltransferase SETD7 (Homo sapiens) (UniProt Q8WTS6); assay: Selectivity interaction (Methyltransferase screen (Scintillation proximity assays)) EUB0000255b SETD7
T1 sequence (whole entry): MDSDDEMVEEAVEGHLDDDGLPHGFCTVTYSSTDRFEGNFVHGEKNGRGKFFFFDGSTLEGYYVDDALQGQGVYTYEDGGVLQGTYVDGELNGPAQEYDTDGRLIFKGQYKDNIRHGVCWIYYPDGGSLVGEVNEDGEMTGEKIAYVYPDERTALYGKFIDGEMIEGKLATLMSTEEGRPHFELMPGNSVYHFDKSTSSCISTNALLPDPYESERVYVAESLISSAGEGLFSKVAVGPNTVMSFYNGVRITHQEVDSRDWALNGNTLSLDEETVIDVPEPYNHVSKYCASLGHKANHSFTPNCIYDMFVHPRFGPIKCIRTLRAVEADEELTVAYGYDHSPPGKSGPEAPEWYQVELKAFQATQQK

[3] = biological target: Tyrosine-protein kinase CSK (Homo sapiens) (UniProt P41240); assay: Selectivity interaction (KinomeScan (DiscoverX)) EUB0000607a CSK; settings: at 10 µM
Tyrosine-protein kinase CSK (Homo sapiens), sequence (P41240 2-450 limits assumed): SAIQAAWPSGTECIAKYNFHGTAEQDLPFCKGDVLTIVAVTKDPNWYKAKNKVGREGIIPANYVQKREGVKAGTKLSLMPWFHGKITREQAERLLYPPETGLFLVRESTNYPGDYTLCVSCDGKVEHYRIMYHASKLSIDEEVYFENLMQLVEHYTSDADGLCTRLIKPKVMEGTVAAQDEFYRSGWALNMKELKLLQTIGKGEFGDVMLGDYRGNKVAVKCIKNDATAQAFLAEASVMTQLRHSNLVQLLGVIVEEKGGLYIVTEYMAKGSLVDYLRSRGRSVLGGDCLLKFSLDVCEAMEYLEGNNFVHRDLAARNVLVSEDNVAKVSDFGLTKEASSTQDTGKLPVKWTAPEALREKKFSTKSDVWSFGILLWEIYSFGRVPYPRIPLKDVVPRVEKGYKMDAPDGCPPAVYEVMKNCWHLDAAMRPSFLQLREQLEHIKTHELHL

[4] = biological target: T2, Serine/threonine-protein kinase RIO1 (Homo sapiens) (UniProt Q9BRS2); assay: Selectivity interaction (KinomeScan (DiscoverX)) EUB0000607a RIOK1; settings: at 10 µM
T2 sequence (whole entry): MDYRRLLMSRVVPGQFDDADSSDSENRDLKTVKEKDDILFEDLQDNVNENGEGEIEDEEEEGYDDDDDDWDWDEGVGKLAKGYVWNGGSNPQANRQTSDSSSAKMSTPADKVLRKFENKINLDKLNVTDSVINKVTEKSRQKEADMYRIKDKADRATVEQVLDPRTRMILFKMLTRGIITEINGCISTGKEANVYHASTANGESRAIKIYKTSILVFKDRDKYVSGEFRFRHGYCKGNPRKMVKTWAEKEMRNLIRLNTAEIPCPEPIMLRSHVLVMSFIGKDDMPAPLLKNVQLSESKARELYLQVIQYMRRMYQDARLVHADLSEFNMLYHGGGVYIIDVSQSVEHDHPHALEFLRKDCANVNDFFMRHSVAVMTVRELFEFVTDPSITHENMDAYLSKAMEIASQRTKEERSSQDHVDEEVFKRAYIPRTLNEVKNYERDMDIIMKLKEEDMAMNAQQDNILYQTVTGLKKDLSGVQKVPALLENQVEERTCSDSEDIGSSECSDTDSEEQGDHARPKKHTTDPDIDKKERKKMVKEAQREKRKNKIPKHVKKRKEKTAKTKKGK

[5] = biological target: Tyrosine-protein kinase Fyn (Homo sapiens) (UniProt P06241); assay: Selectivity interaction (ActivX KiNativ screen (ex vivo kinase selectivity in human PBMCs)) EUB0001619a FYN; type: cell-based; settings: PBMC, at 1 µM
Tyrosine-protein kinase Fyn (Homo sapiens), sequence (P06241 2-537 limits assumed): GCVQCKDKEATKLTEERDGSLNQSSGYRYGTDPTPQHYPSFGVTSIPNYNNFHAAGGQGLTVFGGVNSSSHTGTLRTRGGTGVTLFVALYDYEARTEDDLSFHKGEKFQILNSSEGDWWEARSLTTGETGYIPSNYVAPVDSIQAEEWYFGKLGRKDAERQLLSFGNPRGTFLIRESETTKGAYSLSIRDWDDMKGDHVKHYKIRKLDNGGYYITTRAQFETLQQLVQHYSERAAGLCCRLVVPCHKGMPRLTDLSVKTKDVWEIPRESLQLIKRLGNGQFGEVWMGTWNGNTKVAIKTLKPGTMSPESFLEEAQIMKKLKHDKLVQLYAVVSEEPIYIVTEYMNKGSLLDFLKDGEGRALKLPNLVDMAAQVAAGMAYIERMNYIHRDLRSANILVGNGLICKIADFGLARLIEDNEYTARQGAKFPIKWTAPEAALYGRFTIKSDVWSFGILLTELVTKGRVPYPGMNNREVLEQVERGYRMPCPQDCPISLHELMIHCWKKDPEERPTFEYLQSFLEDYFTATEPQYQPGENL

[6] = biological target: Tyrosine-protein kinase ABL1 (Homo sapiens, UniProt P00519); assay: Selectivity interaction (Kinase panel (DSF assay)) EUB0001558a ABL1
[7] = biological target: T3, Serine/threonine-protein kinase TAO2 (Homo sapiens) (UniProt Q9UL54); assay: Selectivity interaction (KinomeScan (DiscoverX)) EUB0000045b TAOK2
T3 sequence (whole entry): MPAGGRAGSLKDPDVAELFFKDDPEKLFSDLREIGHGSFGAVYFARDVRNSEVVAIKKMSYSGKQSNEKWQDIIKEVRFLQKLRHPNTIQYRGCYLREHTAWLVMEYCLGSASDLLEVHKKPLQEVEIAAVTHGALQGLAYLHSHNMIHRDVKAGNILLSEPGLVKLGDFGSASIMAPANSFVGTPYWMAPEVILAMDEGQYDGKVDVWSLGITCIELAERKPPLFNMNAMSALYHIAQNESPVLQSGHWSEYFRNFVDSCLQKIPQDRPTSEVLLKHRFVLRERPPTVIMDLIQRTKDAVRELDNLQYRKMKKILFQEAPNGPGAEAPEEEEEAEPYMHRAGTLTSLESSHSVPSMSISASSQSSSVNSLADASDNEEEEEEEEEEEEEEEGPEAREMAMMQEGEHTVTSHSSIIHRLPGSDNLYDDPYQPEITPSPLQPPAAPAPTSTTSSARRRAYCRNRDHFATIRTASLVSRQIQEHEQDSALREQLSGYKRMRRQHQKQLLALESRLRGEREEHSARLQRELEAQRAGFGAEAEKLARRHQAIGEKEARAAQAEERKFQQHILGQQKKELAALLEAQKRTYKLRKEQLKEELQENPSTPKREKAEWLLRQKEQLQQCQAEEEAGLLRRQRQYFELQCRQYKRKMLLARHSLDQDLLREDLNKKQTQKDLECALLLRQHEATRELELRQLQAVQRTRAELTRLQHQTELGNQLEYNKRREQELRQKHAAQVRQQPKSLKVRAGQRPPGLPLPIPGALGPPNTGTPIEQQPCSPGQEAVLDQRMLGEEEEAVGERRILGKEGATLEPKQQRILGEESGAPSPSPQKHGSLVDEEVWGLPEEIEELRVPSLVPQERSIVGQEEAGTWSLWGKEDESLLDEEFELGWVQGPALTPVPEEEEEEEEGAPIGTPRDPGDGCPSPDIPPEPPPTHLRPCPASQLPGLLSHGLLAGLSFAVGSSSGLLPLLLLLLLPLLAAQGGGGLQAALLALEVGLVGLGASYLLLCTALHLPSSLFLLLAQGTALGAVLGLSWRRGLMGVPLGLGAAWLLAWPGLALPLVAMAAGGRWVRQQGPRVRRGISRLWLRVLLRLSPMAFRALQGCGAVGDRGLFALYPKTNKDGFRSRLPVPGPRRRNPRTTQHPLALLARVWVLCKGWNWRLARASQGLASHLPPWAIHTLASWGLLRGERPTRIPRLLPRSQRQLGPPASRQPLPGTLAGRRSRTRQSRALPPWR

[8] = biological target: T4, Ribosomal protein S6 kinase alpha-1 (Homo sapiens, UniProt Q15418); assay: Selectivity interaction (Upstate Kinase Profiler service (Millipore)) EUB0000056c RPS6KA1; settings: at 1 µM
T4 sequence (Q15418 whole entry): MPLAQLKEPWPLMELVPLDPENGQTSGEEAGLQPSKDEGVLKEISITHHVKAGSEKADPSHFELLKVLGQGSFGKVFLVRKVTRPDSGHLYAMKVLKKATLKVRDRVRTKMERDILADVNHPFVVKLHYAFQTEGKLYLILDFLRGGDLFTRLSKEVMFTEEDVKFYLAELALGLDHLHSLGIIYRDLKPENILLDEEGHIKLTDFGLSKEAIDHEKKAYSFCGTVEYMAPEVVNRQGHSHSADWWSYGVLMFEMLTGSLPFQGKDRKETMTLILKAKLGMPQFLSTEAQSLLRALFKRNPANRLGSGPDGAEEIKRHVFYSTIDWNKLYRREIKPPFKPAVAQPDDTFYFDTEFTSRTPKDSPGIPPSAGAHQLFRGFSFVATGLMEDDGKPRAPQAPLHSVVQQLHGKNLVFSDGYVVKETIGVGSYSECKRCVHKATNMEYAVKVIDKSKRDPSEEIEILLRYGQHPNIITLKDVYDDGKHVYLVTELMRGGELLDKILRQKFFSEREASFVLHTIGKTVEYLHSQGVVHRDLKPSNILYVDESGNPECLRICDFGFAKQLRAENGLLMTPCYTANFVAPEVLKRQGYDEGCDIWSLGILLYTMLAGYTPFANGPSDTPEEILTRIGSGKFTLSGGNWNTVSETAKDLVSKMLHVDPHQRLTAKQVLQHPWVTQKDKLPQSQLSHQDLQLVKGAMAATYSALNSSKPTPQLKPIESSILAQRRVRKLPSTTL

[9] = tested on: Proto-oncogene tyrosine-protein kinase receptor Ret (Homo sapiens), P07949 [V804L]; settings: at 10 µM
Proto-oncogene tyrosine-protein kinase receptor Ret (Homo sapiens), P07949 [V804L], sequence (P07949 whole entry V804L): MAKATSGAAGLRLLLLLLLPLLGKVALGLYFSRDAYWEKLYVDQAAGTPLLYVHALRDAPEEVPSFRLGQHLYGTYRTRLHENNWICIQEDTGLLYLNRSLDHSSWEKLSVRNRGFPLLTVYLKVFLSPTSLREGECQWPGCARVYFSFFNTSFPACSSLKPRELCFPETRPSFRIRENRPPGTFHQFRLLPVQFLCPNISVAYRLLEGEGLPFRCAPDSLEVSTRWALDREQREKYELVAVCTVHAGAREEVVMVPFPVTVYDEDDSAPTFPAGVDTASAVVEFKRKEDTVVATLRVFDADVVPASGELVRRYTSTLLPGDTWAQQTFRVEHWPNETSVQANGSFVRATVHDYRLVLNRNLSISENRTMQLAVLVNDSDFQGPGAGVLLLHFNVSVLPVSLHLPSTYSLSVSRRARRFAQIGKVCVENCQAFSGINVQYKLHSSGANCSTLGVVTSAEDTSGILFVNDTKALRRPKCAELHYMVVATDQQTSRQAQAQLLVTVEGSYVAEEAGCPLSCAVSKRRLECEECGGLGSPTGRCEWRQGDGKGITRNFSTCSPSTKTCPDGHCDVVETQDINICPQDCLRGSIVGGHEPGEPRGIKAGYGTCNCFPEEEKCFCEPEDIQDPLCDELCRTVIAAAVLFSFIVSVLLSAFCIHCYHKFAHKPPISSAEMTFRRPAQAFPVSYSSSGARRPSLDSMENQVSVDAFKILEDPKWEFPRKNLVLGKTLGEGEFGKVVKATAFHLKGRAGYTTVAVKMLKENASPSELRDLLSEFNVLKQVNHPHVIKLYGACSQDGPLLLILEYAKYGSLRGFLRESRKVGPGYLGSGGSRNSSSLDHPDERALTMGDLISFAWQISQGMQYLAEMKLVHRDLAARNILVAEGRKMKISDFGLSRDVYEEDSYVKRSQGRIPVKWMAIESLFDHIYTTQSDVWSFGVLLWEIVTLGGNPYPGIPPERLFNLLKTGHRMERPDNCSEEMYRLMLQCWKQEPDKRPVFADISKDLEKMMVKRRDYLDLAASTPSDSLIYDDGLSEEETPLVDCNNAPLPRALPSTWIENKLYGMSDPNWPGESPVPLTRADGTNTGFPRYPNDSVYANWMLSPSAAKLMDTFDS

[10] = biological target: T4, Ribosomal protein S6 kinase alpha-1; assay: Selectivity interaction (ActivX KiNativ screen (kinase selectivity in THP-1 cell lysates)) EUB0000639a RPS6KA1; type: subcellular; settings: lysate, at 0.04 µM
[11] = tested on: Tyrosine-protein kinase ABL1 (Homo sapiens), P00519 [T315I]; assay: Selectivity interaction (KinomeScan (DiscoverX)) EUB0000666a ABL1; settings: at 10 µM
[12] = biological target: Non-receptor tyrosine-protein kinase TYK2 (Homo sapiens, UniProt P29597); assay: Selectivity interaction (KinomeScan (DiscoverX)) EUB0000092b TYK2; settings: at 10 µM
Non-receptor tyrosine-protein kinase TYK2, sequence (P29597 whole entry): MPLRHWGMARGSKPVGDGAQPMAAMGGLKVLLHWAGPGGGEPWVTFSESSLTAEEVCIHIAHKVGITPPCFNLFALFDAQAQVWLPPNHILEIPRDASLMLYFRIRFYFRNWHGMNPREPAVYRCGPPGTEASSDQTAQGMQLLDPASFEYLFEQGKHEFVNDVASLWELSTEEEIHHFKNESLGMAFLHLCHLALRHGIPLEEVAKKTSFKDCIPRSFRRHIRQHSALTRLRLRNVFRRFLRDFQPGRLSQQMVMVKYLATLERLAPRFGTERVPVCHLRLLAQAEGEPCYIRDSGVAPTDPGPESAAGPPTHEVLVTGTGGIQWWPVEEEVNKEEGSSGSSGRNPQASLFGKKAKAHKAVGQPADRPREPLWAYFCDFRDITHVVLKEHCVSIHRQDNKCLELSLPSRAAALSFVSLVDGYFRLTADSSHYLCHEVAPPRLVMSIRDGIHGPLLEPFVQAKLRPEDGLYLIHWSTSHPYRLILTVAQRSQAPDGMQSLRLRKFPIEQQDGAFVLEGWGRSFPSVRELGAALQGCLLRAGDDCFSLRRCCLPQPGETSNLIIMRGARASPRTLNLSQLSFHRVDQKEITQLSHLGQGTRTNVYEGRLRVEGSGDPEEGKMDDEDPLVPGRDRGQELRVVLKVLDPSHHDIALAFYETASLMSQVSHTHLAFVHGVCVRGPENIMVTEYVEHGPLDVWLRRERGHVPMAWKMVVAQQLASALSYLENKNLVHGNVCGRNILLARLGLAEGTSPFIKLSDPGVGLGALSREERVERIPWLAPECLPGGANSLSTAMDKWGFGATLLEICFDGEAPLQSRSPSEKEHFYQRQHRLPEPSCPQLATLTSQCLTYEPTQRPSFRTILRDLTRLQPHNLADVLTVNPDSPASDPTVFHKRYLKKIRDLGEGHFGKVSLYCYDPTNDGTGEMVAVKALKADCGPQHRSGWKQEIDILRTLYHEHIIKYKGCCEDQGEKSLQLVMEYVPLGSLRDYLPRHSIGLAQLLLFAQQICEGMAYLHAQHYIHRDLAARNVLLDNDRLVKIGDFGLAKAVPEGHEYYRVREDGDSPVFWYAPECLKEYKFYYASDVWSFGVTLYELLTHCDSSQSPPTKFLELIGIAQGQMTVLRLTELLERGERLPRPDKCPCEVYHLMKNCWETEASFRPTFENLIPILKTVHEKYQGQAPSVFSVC

3',5'-cyclic-AMP phosphodiesterase 4D (Homo sapiens), sequence (Q08499 whole entry): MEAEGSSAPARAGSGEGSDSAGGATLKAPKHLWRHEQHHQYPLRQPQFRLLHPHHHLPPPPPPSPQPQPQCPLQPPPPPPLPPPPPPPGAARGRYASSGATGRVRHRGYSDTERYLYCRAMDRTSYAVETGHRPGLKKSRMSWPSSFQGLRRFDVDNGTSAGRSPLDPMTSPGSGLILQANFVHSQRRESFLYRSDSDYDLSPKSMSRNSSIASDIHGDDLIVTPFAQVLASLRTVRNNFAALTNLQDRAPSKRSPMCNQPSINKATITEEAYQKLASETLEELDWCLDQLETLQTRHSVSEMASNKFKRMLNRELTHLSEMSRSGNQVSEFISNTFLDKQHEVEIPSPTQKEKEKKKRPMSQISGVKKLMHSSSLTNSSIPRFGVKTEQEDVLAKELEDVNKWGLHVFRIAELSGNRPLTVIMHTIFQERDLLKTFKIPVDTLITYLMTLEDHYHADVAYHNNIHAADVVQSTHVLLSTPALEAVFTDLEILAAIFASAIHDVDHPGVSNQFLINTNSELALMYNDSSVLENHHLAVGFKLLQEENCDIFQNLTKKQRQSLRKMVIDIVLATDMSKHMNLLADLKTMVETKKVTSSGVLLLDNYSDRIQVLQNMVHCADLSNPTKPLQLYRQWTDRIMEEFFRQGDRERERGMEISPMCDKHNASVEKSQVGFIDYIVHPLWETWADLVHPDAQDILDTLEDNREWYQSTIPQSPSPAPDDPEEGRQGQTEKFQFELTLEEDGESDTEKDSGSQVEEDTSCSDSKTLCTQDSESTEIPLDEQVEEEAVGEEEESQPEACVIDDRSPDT

SMILES: Cc1cc(C)cc([C@@H]2c3cc(C)ccc3NC(=O)CN2C(=O)c2ccc(Br)s2)c1
- % of inhibition [1]: -12%

SMILES: COCCN1CCC(c2cc(CN(C)C(=O)c3cccc(Oc4ccccc4)c3)ccn2)CC1
- % activity ([2]; at 1 µM): > 95%
- % activity ([2]; at 10 µM): > 90%

SMILES: CNC(=O)Nc1ccc(-c2nc(N3CC4CCC(C3)O4)c3cnn(C4CCC5(CC4)OCCO5)c3n2)cc1
- % of control [3]: 100%
- % of control [4]: 91%

SMILES: N#Cc1cccc(-c2c[nH]c3ncnc(N4CCOCC4)c23)c1
- % of inhibition [5]: -9%

SMILES: CC(C)(O)[C@H](F)CN1Cc2cc(NC(=O)c3cnn4cccnc34)c(N3CCOCC3)cc2C1=O
- dTM [6]: 1.7 K

SMILES: C=CC(=O)Nc1cc(-n2c(=O)ccc3cnc4ccc(-c5ccc(NS(C)(=O)=O)cc5)cc4c32)ccc1C
- % of control ([7]; at 1 µM): 80%
- % of control ([7]; at 10 µM): 100%

- % of inhibition [8]: 17%
SMILES: Cc1ccc(-c2ccc3c(ccc4sc5c(c43)NC[C@@H](C)NC5=O)n2)cn1

SMILES: Cc1cc([C@@H](C)Nc2ccccc2C(=O)O)c2nc(N3CCOCC3)cc(=O)n2c1 [AZD-6482]
- % of control [9]: 99%

- % of inhibition [10]: 6.3%
SMILES: CC[C@@H]1[C@H](F)C(=O)N[C@@H]1COc1nccc2cc(C(N)=O)c(OC)cc12 [ZIMLOVISERTIB]

SMILES: O=C(NOC[C@H](O)CO)c1ccc(F)c(F)c1Nc1ccc(I)cc1F
- % of control [11]: 86%

SMILES: CCC(=O)N1CCN(c2ccc(-n3c(=O)ccc4cnc5ccc(-c6cnc7ccccc7c6)cc5c43)cc2C(F)(F)F)CC1
- % of control [12]: 70%
